The record followed here is patent US20210369710A1, “MODULATORS OF MYC FAMILY PROTO-ONCOGENE PROTEIN” (Nalo Therapeutics, priority 2019, published 2021).

The target in one assay is T1, MycN Protein (Homo sapiens, UniProt P04198).
T1 construct: endogenous in cells; host or cells: HL-60 or SKNBE2
T1 sequence (P04198 1-464): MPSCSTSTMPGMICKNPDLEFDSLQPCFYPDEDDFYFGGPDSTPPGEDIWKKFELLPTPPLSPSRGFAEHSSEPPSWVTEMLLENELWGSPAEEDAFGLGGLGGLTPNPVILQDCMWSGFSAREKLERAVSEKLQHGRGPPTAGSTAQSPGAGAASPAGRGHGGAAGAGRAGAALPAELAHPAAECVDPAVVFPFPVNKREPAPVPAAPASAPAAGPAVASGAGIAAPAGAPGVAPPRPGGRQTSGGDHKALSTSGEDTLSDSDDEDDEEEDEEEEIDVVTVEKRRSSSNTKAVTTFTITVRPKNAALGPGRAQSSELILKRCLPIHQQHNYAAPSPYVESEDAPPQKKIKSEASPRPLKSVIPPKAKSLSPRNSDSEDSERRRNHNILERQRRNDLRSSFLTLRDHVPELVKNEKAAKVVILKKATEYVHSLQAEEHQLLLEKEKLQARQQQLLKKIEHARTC
The assay can be described thus: Degradation of MycN protein, Western blot band density in cells. The note with it: HL-60 or SKNBE2 cells; 6 uL of compound (1 mM) added to 3 mL cells; 6 hours; Western blot band density (ImageJ). In kind it is cell-based. The procedure, abridged:
(§1)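 HL-60 leukemia or SKNBE2 neuroblastoma cells (3×10^6 per well, passages below 40) were exposed for 6 h to compound added from a 1 mM stock. RIPA lysates (25-30 ug protein) were run on SDS-PAGE and immunoblotted for c-Myc or MycN. Band density was quantified from the western images.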

The target in the next assay is T2, MycC Protein (Homo sapiens, UniProt P01106).
T2 construct: endogenous in cells; host or cells: HL-60 or SKNBE2
The assay can be described thus: Degradation of MycC protein, Western blot band density in cells. In kind it is cell-based. The note with it: HL-60 or SKNBE2 cells; 6 uL of compound (1 mM) added to 3 mL cells; 6 hours; Western blot band density (ImageJ). The method, boiled down: as §1

T2 sequence (P01106 whole entry): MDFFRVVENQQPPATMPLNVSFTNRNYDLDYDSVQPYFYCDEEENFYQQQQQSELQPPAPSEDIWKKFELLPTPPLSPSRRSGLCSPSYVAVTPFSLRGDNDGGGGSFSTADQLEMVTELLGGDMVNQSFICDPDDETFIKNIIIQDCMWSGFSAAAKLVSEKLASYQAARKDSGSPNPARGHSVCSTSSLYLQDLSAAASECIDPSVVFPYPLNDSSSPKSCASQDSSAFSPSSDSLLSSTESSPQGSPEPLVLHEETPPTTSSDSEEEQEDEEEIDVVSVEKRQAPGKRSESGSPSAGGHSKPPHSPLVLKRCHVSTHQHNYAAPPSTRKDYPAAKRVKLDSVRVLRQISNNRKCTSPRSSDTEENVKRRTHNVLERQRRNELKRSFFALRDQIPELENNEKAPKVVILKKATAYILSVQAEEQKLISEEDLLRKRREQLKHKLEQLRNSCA

For the molecule `O=C(NC1Cc2ccncc2C1)N[C@H]1CC[C@H](Nc2nccc(Nc3cc(C4CCCC4)[nH]n3)n2)CC1` (stereo partly drawn) [Compound 101, 1-((1R,4R)-4-((4-((5-cyclopentyl-1H-pyrazol-3-yl)amino)pyrimidin-2-yl)amino)cyclohexyl)-3-(6,7-dihydro-5H-cyclopenta[c]pyridin-6-yl)urea], the Dmax at 2 µM at MycN Protein was less than 20%; on MycC Protein, 80 to 100%.
The like results for `O=C(NC1CC(c2ccccc2)C1)N[C@H]1CC[C@H](Nc2nccc(Nc3cc(C4CCOC4)[nH]n3)n2)CC1` (stereo partly drawn) [Compound 102, 1-((1R,3R)-3-phenylcyclobutyl)-3-((1,4R)-4-((4-((5-(tetrahydrofuran-3-yl)1H-pyrazol-3-yl)amino)pyrimidine-2-yl)amino)cyclohexyl)urea] were, in that order, less than 20% and less than 20%.
`Cc1cc(Nc2ccnc(N[C@H]3CC[C@H](NC(=O)NC4CCN(C(=O)C5CC5)CC4)CC3)n2)n[nH]1` [Compound 103, 1-(1-(cyclopropanecarbonyl)piperidin-4-yl)-3-((1R,4R)-4-((4-((5-methyl-1H-pyrazol-3-yl)amino)pyrimidin-2-yl)amino)cyclohexyl)urea]: the Dmax at 2 µM on MycN Protein and on MycC Protein was less than 20% throughout.
As for `Cc1cc(Nc2ccnc(N[C@H]3CC[C@H](NC(=O)N[C@@H]4CCC[C@H](C(F)(F)F)C4)CC3)n2)n[nH]1` [Compound 104, 1-((1R,4R)-4-((4-((5-methyl-1H-pyrazol-3-yl)amino)pyrimidin-2-yl)amino)cyclohexyl)-3-((1R,3S)-3-(trifluoromethyl)cyclohexyl)urea], the Dmax at 2 µM on MycN Protein was 20 to 49%; at MycC Protein it was less than 20%.
In the case of `CO[C@H]1c2ccccc2C[C@H]1NC(=O)N[C@H]1CC[C@H](Nc2nccc(Nc3cc(C)[nH]n3)n2)CC1` [Compound 105, 1-((1S,2R)-1-methoxy-2,3-dihydro-1H-inden-2-yl)-3-((1R,4R)-4-((4-((5-methyl-1H-pyrazol-3-yl)amino)pyrimidin-2-yl)amino)cyclohexyl)urea], the Dmax at 2 µM at MycN Protein and on MycC Protein was less than 20% each time.
Regarding `CN1CC(NCc2ccc3c(c2)CC(NC(=O)N[C@H]2CC[C@H](Nc4nccc(Nc5cc(C6CCCC6)[nH]n5)n4)CC2)C3)C1` (stereo partly drawn) [Compound 107], the Dmax at 2 µM at MycN Protein was less than 20%; on MycC Protein, 50 to 79%.
Turning to `C/N=C(\Nc1cccc(C(F)(F)F)c1)N[C@H]1CC[C@H](Nc2nccc(Nc3cc(C)[nH]n3)n2)CC1` [Compound 112], the Dmax at 2 µM on MycN Protein and at MycC Protein was less than 20% each time.
For `Cc1cc(Nc2ccnc(N[C@H]3CC[C@H](NC(=O)NC4Cc5ccc(S(C)(=O)=O)cc5C4)CC3)n2)n[nH]1` (stereo partly drawn) [Compound 115], the Dmax at 2 µM at MycN Protein and at MycC Protein was less than 20% in each case.
For the molecule `O=C(N[C@@H]1CCC[C@@H](C(F)(F)F)C1)N[C@H]1CC[C@H](Nc2nccc(Nc3cc(C4CCCC4)[nH]n3)n2)CC1` [Compound 119], the Dmax at 2 µM at MycN Protein and at MycC Protein was less than 20% each time.
Consider `Cc1cc(Nc2ccnc(N[C@H]3CC[C@H](NC(=O)N[C@@H]4CCC[C@@H](C(F)(F)F)C4)CC3)n2)n[nH]1` [Compound 120], for which the Dmax at 2 µM at MycN Protein and on MycC Protein was less than 20% in each case.
With `CN(c1nccc(Nc2cc(C3CCCC3)[nH]n2)n1)C1CCC(NC(=O)N[C@H]2CCC[C@@H](C(F)(F)F)C2)CC1` (stereo partly drawn) [Compound 121 (Fraction 1), 1-((1R,4S)-4-((4-((5-cyclopentyl-1H-pyrazol-3-yl)amino)pyrimidin-2-yl)(methyl)amino)cyclohexyl)-3-((1S,3R)-3-(trifluoromethyl)cyclohexyl)urea], the “% Degradation of MycN” value on MycN Protein is given as “*** (***: degradation 50-79%)”. Further, at MycC Protein, the “% Degradation of MycC” value is listed as “*** (***: degradation 50-79%)”.
In the case of `CN(c1nccc(Nc2cc(C3CCCC3)[nH]n2)n1)C1CCC(NC(=O)N[C@H]2CCC[C@@H](C(F)(F)F)C2)CC1` (stereo partly drawn) [Compound 121 (Fraction 2), 1-((1R,4S)-4-((4-((5-cyclopentyl-1H-pyrazol-3-yl)amino)pyrimidin-2-yl)(methyl)amino)cyclohexyl)-3-((1S,3R)-3-(trifluoromethyl)cyclohexyl)urea], at MycN Protein, the “% Degradation of MycN” value is “*** (***: degradation 50-79%)”. In addition, the “% Degradation of MycC” value at MycC Protein is “** (**: degradation 20-49%)”.
On to `CN(c1nccc(Nc2cc(C3CC3)[nH]n2)n1)[C@H]1CC[C@H](NC(=O)NC2Cc3ccc(C#N)cc3C2)CC1` (stereo partly drawn) [Compound 142, 1-(5-cyano-2,3-dihydro-1H-inden-2-yl)-3-((1R,4R)-4-((4-((5-cyclopropyl-1H-pyrazol-3-yl)amino)pyrimidin-2-yl)(methyl)amino)cyclohexyl)urea], for which the Dmax at 2 µM on MycN Protein and at MycC Protein was 80 to 100% each time.
`CN(C(=O)NC1Cc2ccc(C#N)cc2C1)[C@H]1CC[C@H](N(C)c2nccc(Nc3cc(C4CCCC4)[nH]n3)n2)CC1` (stereo partly drawn) [Compound 143, 3-(5-cyano-2,3-dihydro-1H-inden-2-yl)-1-((1R,4R)-4-((4-((5-cyclopentyl-1H-pyrazol-3-yl)amino)pyrimidin-2-yl)(methyl)amino)cyclohexyl)-1-methylurea]: the Dmax at 2 µM at MycN Protein and on MycC Protein was 50 to 79% in each case.
With `CN(c1nccc(Nc2cc(C3CCC3)[nH]n2)n1)[C@H]1CC[C@H](NC(=O)NC2Cc3ccc(C#N)cc3C2)CC1` (stereo partly drawn) [Compound 144, 1-(5-cyano-2,3-dihydro-1H-inden-2-yl)-3-((1R,4R)-4-((4-((5-cyclobutyl-1H-pyrazol-3-yl)amino)pyrimidin-2-yl)(methyl)amino)cyclohexyl)urea], the Dmax at 2 µM is 50 to 79% at MycN Protein and 80 to 100% at MycC Protein.
In the same order, the values of `CN(c1nccc(Nc2cc(C3CC(F)(F)C3)[nH]n2)n1)[C@H]1CC[C@H](NC(=O)NC2Cc3ccc(C#N)cc3C2)CC1` (stereo partly drawn) [Compound 145, 1-(5-cyano-2,3-dihydro-1H-inden-2-yl)-3-((1R,4R)-4-((4-((5-(3,3-difluorocyclobutyl)-1H-pyrazol-3-yl)amino)pyrimidin-2-yl)(methyl)amino)cyclohexyl)urea] are 80 to 100% and 50 to 79%.
The like results for `CN(c1nccc(Nc2cc(C3CC4(CC4)C3)[nH]n2)n1)[C@H]1CC[C@H](NC(=O)NC2Cc3ccc(C#N)cc3C2)CC1` (stereo partly drawn) [Compound 148, 1-(5-cyano-2,3-dihydro-1H-inden-2-yl)-3-((1R,4R)-4-(methyl(4-((5-(spiro[2.3]hexan-5-yl)-1H-pyrazol-3-yl)amino)pyrimidin-2-yl)amino)cyclohexyl)urea] were, in that order, 80 to 100% and 50 to 79%.
For the molecule `CN(c1nccc(Nc2cc(C3CCC(F)(F)C3)[nH]n2)n1)[C@H]1CC[C@H](NC(=O)NC2Cc3ccc(C#N)cc3C2)CC1` (stereo partly drawn) [Compound 149, 1-(5-cyano-2,3-dihydro-1H-inden-2-yl)-3-((1R,4R)-4-((4-((5-(3,3-difluorocyclopentyl)-1H-pyrazol-3-yl)amino)pyrimidin-2-yl)(methyl)amino)cyclohexyl)urea], the Dmax at 2 µM at MycN Protein is 50 to 79%; at MycC Protein it was less than 20%.
For `CN(c1nccc(Nc2cc(C3CC3)[nH]n2)n1)[C@H]1CC[C@H](NC(=O)NC2Cc3ccccc3C2)CC1` [Compound 150, 1-((1R,4R)-4-((4-((5-cyclopropyl-1H-pyrazol-3-yl)amino)pyrimidin-2-yl)(methyl)amino)cyclohexyl)-3-(2,3-dihydro-1H-inden-2-yl)urea], the Dmax at 2 µM at MycN Protein and at MycC Protein was 80 to 100% each time.
As for `COCCN(c1nccc(Nc2cc(C3CC3)[nH]n2)n1)C1CCC(NC(=O)NC2Cc3ccc(C#N)cc3C2)CC1` [Compound 152, 1-(5-cyano-2,3-dihydro-1H-inden-2-yl)-3-((1R,4R)-4-((4-((5-cyclopropyl-1H-pyrazol-3-yl)amino)pyrimidin-2-yl)(2-methoxyethyl)amino)cyclohexyl)urea], at MycN Protein, the “% Degradation of MycN” value is listed as “**** (****: degradation 80-100%)”. Moreover, on MycC Protein, the “% Degradation of MycC” value is “**** (****: degradation 80-100%)”.
Turning to `CN(C(=O)N[C@H]1CC[C@H](N(C)c2nccc(Nc3cc(C4CCCC4)[nH]n3)n2)CC1)C1Cc2ccc(C#N)cc2C1` (stereo partly drawn) [Compound 153, 1-(5-cyano-2,3-dihydro-1H-inden-2-yl)-3-((1R,4R)-4-((4-((5-cyclopentyl-1H-pyrazol-3-yl)amino)pyrimidin-2-yl)(methyl)amino)cyclohexyl)-1-methylurea], the results for the Dmax at 2 µM at MycN Protein and at MycC Protein were 20 to 49% and 50 to 79%, respectively.
